Series [1] has as its system TZM-resistant GBM cell. The series is described as follows: Disruption of DNA repair in patient-derived human TMZ-resistant GBM cells assessed as decrease in RAD51 level at 20 uM upto 80 hrs by Western blot analysis. The series is classed as functional, cell-based. In general terms: Immunoblotting shows a protein as a band on a membrane.
The subject of series [2] is TZM-resistant GBM cell. The series can be described thus: Disruption of DNA repair in patient-derived human TMZ-resistant GBM cells assessed as decrease in CtIP level at 20 uM upto 80 hrs by Western blot analysis. It counts as functional, cell-based.
The target of series [3] is T1, Histone deacetylase (Homo sapiens) (UniProt Q13547+O15379+Q9UBN7+Q92769+Q9UQL6+Q8WUI4+Q9BY41+Q96DB2+P56524+Q9UKV0+Q969S8). The series can be described thus: Inhibition of HDAC in human U-87 MG cells assessed as increase in acetyl histone H3 at K4 sites at 10 uM incubated for 1 hr by Western blot analysis. It counts as cell-based.
The target of series [4] is T1, Histone deacetylase (Homo sapiens). The series can be described thus: Inhibition of HDAC in human U-87 MG cells assessed as increase in acetyl histone H3 at K9 sites at 10 uM incubated for 1 hr by Western blot analysis. The series is classed as cell-based.
Series [5] shares this target. The series is described as follows: Inhibition of HDAC in human U-87 MG cells assessed as increase in acetyl histone H3 at K14 sites at 10 uM incubated for 1 hr by Western blot analysis. It counts as cell-based.
Series [6] shares this target. The series is described as follows: Inhibition of HDAC in human U-87 MG cells assessed as increase in acetyl histone H3 at K18 sites at 10 uM incubated for 1 hr by Western blot analysis. It counts as cell-based.
The target is the same in series [7]. The series can be described thus: Inhibition of HDAC in human U-87 MG cells assessed as increase in acetyl histone H3 at K27 sites at 10 uM incubated for 1 hr by Western blot analysis. The series is classed as cell-based.
Series [8] shares this target. The series can be described thus: Inhibition of HDAC in human U-87 MG cells assessed as increase in acetyl histone H3 at K56 sites at 10 uM incubated for 1 hr by Western blot analysis. It counts as cell-based.
Series [9] shares this target. The series can be described thus: Inhibition of HDAC in human U-87 MG cells assessed as increase in acetyl histone H3 at K5 sites at 10 uM incubated for 1 hr by Western blot analysis. It counts as cell-based.
The target is the same in series [10]. The series can be described thus: Inhibition of HDAC in human U-87 MG cells assessed as increase in acetyl histone H3 at K8 sites at 10 uM incubated for 1 hr by Western blot analysis. It counts as cell-based.
For series [11] the target is unchanged. The series can be described thus: Inhibition of HDAC in human U-87 MG cells assessed as increase in acetyl histone H3 at K16 sites at 10 uM incubated for 1 hr by Western blot analysis. It counts as cell-based.
Series [12] has as its system TZM-resistant GBM cell. The series can be described thus: Disruption of DNA repair in patient-derived human TMZ-resistant GBM cells assessed as increase in ATM phosphorylation upto 80 uM incubated for 72 hrs by Western blot analysis. The series is classed as functional, cell-based.
Series [13] relates to TZM-resistant GBM cell. The series is described as follows: Effect on cellular proliferation dynamics in patient-derived human TMZ-resistant GBM cells at 10 uM incubated for 72 hrs by RNA-seq analysis. It counts as functional, cell-based.
Series [14] deals with TZM-resistant GBM cell. The series is described as follows: Suppression of DNA replication in patient-derived human TMZ-resistant GBM cells by GSEA analysis. It counts as functional, cell-based.
The test system of series [15] is TZM-resistant GBM cell. The series can be described thus: Suppression of mitotic nuclear division in patient-derived human TMZ-resistant GBM cells by GSEA analysis. It counts as functional, cell-based.
For series [16], the system named is TZM-resistant GBM cell. The series is described as follows: Induction of cell cycle arrest in patient-derived human TMZ-resistant GBM cells assessed as decrease in accumulation of cells at G0/G1 phase at 1 to 20 uM. The series is classed as functional, cell-based. Particulars: dose 1-20 µM.
The test system of series [17] is TZM-resistant GBM cell. The series is described as follows: Induction of cell cycle arrest in patient-derived human TMZ-resistant GBM cells assessed as accumulation of cells at G2/M phase at 1 to 20 uM. It counts as functional, cell-based. The settings on record: dose 1-20 µM.
Series [18] deals with U-87 MG. The series is described as follows: Disruption of DNA homologous recombination repair in human U-87 MG cells assessed as HR repaired cells at 5 uM incubated for 48 hrs by flow cytometry relative to control. It counts as functional, U-87MG ATCC. On the technique in general: Flow cytometry measures light scatter and fluorescence of single cells or particles in a stream.

Series [19] deals with U-87 MG. The series is described as follows: Disruption of DNA homologous recombination repair in human U-87 MG cells assessed as HR repaired cells at 2.5 uM incubated for 48 hrs by flow cytometry relative to control. The series is classed as functional, U-87MG ATCC. Particulars: […].
Series [20] relates to TZM-resistant GBM cell. The series can be described thus: Disruption of DNA repair in patient-derived human TMZ-resistant GBM cells assessed as decrease in CtIP level upto 80 uM incubated for 72 hrs by Western blot analysis. It counts as functional, cell-based.
Series [21] concerns TZM-resistant GBM cell. The series can be described thus: Disruption of DNA repair in patient-derived human TMZ-resistant GBM cells assessed as decrease in RPA32 level upto 80 uM incubated for 72 hrs by Western blot analysis. The series is classed as functional, cell-based.
Series [22] has as its system TZM-resistant GBM cell. The series can be described thus: Disruption of DNA repair in patient-derived human TMZ-resistant GBM cells assessed as decrease in RAD51 level upto 80 uM incubated for 72 hrs by Western blot analysis. The series is classed as functional, cell-based.
Series [23] has as its system TZM-resistant GBM cell. The series is described as follows: Disruption of DNA repair in patient-derived human TMZ-resistant GBM cells assessed as decrease in RAD51 level at 40 uM upto 80 hrs by Western blot analysis. It counts as functional, cell-based.
Series [24] relates to TZM-resistant GBM cell. The series is described as follows: Disruption of DNA repair in patient-derived human TMZ-resistant GBM cells assessed as decrease in CtIP level at 40 uM upto 80 hrs by Western blot analysis. The series is classed as functional, cell-based.
The test system of series [25] is TZM-resistant GBM cell. The series can be described thus: Induction of RAD51 degradation in human TMZ-resistant GBM cells assessed increase in RAD51 ubiquitination upto 20 uM incubated for 24 hrs by Western blot analysis. It counts as cell-based.
The nature of series [26]: Drug uptake in C57BL/6 mouse plasma at 360 mg/kg, ip measured after 30 mins by UPLC analysis. It counts as ADME, organism-based. Particulars: in vivo, 0.5 h.
The nature of series [27]: Drug uptake in C57BL/6 mouse brain at 360 mg/kg, ip measured after 30 mins by UPLC analysis. The series is classed as ADME, organism-based. The settings on record: in vivo, 0.5 h.
The subject of series [28] is TMZ-resistant CT-2A cell. The series is described as follows: Antitumor activity against mouse CT-2A cells implanted in C57BL/6 mouse assessed as tumor growth inhibition at 10 mg/kg, ip measured for 10 to 17 days by IVIS analysis. Particulars: time 10-17 day. The series is classed as functional, organism-based.
Series [29] has as its system TMZ-resistant CT-2A cell. The series can be described thus: Antitumor activity against mouse TMZ-resistant CT-2A cells implanted in C57BL/6 mouse assessed as tumor growth inhibition at 50 mg/kg, po measured for 17 to 25 days by IVIS analysis. The series is classed as functional, organism-based. Particulars: time 17-25 day.
Series [30] has as its system Mus musculus. The series can be described thus: In vivo antitumor activity against patient-derived human TMZ-resistant GBM cells implanted in C57BL/6 mouse assessed as increase in animal survival at 10 to 20 mg/kg administered on every 3 days measured for 60 days in presence of TMZ. Particulars: dose 10-20 mg/kg, time 60.0 day. It counts as functional, organism-based.

Series [31] concerns TZM-resistant GBM cell. The series is described as follows: Antitumor activity against patient-derived human TMZ-resistant GBM cells implanted in C57BL/6 mouse assessed as inhibition of tumor cell growth in brain at 10 to 20 mg/kg administered on every 3 days measured for 60 days in presence of TMZ. Particulars: dose 10-20 mg/kg, time 60.0 day. The series is classed as functional, organism-based.

Molecules are shown by their SMILES. Activity calls are given as the source filed them. No cut-off for these calls is given here.

Consider `C[C@@H]1C[C@@H]([C@H](O)CC2CC(=O)NC(=O)C2)C(=O)[C@@H](C)C1`, for which the Activity entry in series [1] and in series [2] was “Active; Less Pronounced Effect Observed” each time.
On to `O=C(/C=C/c1ccc(CNC[C@H]2CN(c3ccc(N4CCOCC4)c(F)c3)C(=O)O2)cc1)NO`, for which the inhibition result in [3], in [4], in series [5], in [6], in [7] and in series [8] was “Active” each time. For the same compound, the inhibition entry in series [9], in series [10], in [11], in series [28], in series [29] and in series [31] was “Active” each time. Also, the Activity entry is recorded as “Active; Result Suggests Activation Of Physiological Response To Dsbs Induced By Compound” in series [12]; 5.06% in series [18]; 11.4% in series [19]; “Active; Rapid And Significant Decrease In Expression Observed Over Time” in [23]; “Active; Rapid And Significant Decrease In Expression Observed Over Time” in series [24]. For the same compound, the result in series [13], in series [14], in series [15], in [16], in series [17] and in series [20] was Active. Besides, the outcome in series [21], in series [22], in series [25] and in [30] was Active. Also, the Drug uptake entry in series [26] and in [27] was “Active” in each case.

The record behind these values is ChEMBL document CHEMBL6096725, “Repurposing Linezolid in Conjunction with Histone Deacetylase Inhibitor Access in the Realm of Glioblastoma Therapies” (J Med Chem, 2025).
